# According to patent US7728128B2, “Dibenzo[c,h][1,5]naphthyridines and their use as DNA probes” (Institut National de la Sante et de la Recherche Medicate …, priority 2006, dated 2010):
# Key:
# CT DNA = test: quantum yield, free dye and in admixture with CT DNA; type: physicochemical, calf
# Experimental: (§1) Spectrometry and fluorimetry were performed using a SpectraMax384 (Molecular Devices) and a Luminescence Spectrometer LS50B (Perkin Elmer). Fluorescence emission of compound I in complex with DNA and RNA was measured in 50 mM Na phosphate buffer, pH 7.2 at room temperature. Before use, total E. coli RNA was heated to 100° C. for 1 min and immediately transferred on ice for 5 min before mixing with compound I solution. All measurements were carried out at room temperature (20-23° C.) in solutions protected from light and incubated for ˜10-15 min after dilution. The units of b/dye and bp/dye are defined as moles of RNA bases or DNA base pairs per mole of dye. Quantum yield was measured using quinine sulphate as standard as described in (Iupac Commission on Photochemistry, EPA Newsletter of November 1986, 21-29) using FLUOROMAX-3 Spex Spectrofluorometer (HORIBA) and UVIKON XL Spectrophotometer (SECOMAM).
# Although compound I also stains mitotic chromosomes (FIG. 1D), theoretically it was possible that it binds specifically to DNA-associated proteins (for example histones) rather than to nucleic acids. To resolve this issue, the absorption and emission spectra of free compound I before and after addition of dsDNA were recorded. […] Molar extinction coefficient (EC) of free compound I at 391 nm was measured at 10,800 cm^−1 M^−1. […]
# human fibroblasts = test: in vivo nuclear fluorescence of human fibroblasts incubated with the molecules, scored in the microscope; type: cell-based; set-up: key: Weak: Staining was defined as “weak”, “moderate” or “strong” based on the nuclear signal/background ratio.; Moderate: Staining was defined as “weak”, “moderate” or “strong” based on the nuclear signal/background ratio.; Strong: Staining was defined as “weak”, “moderate” or “strong” based on the nuclear signal/background ratio; details: 10 μM, 10-60 min (up to 24 hours); Alexa488/FITC filter
# Experimental: In this study, three different types of cells were used: Xenopus epithelial cell line XL177 (Miller, L. et al., 1977, In Vitro, 13, 557-563) stably transformed with a YFP-α-tubulin expressing construct (pEYFP-Tub, Clontech), mouse fibroblasts, and primary human skin fibroblasts. XL177 cells were grown at 20° C. in 60% Leibowitz-15 medium, supplemented with antibiotics, 10% fetal calf serum (FCS) and 10 mM HEPES, pH 7.2 with addition of 0.7 mg/ml G418. Cells were plated into glass-bottom 96-well plates (Greiner, Germany) and left to spread for 24 hours before being incubated in the presence of the test compounds from the Curie-CNRS small molecule library (at 25 or 50 μM final concentration) for another 20-24 hours. Mouse and human fibroblasts were grown in DMEM with antibiotics and 10% FCS at 37° C. in the presence of 5% CO2. The cells were observed using a Zeiss Axiovert 200M microscope with a 40× oil immersion objective and a standard Alexa488/FITC filter (Omega, XF100-2; Ex475AF40/Em535AF45/Dichroic505). Subsequent experiments were carried out using smaller concentrations of compound I and incubation times as described in the text and figures legends. For the in vivo tests of compound I-like compounds, the molecules were added to cell culture medium at 10 μM final concentration and incubated with cells 10-60 min (up to 24 hours) prior to scoring.
# To get a further insight into how the structural properties of compound I contribute to its binding to DNA, the inventors analysed fourteen structural analogues present in the compound library. Although several of these compounds are fluorescent in vivo, this property went undetected in the initial screen most likely due to the latency period before the appearance of the signal (see below). To evaluate the activity of compound I-like molecules three tests were used: (1) in vivo, the inventors incubated human fibroblasts in the presence of the molecules and scored nuclear fluorescence in the microscope; (2 and 3) in vitro, the inventors looked at the absorption and fluorescence of free molecules before and after addition of plasmid DNA. […] With the exception of compound I and analogues 8 and 12, accurate in vitro measurement of the fluorescence intensities was impossible because the emission peaks for the free molecules were too close to that for the DNA-bound dye. This affected the height of the dye/DNA peaks.
# [1] = tested on: ds plasmid DNA or heat-denatured E. coli RNA; test: fluorescence titration with dsDNA versus RNA (selectivity); type: binding; details: for emission strength with DNA relative to RNA: 50 μM DNA or RNA
# Experimental: Plasmid dsDNA was purified using a Qiagen Maxiprep kit and used in the supercoiled form for absorption and fluorescence studies. E. coli total RNA was bought from Ambion, dA/dT and dG/dC homopolymers were purchased from Amersham Biosciences. Calf thymus (CT) high-molecular weight DNA and Hoechst 33258 were obtained from Sigma-Aldrich. Ethidium bromide was purchased from Amresco.
# as §1
# A number of known fluorescent dyes bind preferentially to dsDNA, while others, like the SYTO dyes, bind similarly well to dsDNA, ssDNA and RNA (Haugland, R. P. et al., supra). Knowing these properties is important to the design of experiments where one or another (or several) type(s) of nucleic acids may be present. To investigate the selectivity of compound I, the inventors have compared fluorescence intensities at 484 nm of the dye incubated with ds plasmid DNA or heat-denatured E. coli RNA. […] At higher dye/b or dye/bp ratio, the difference was smaller (1.8-fold at dye/b(bp) ratio 0.2), meaning that elevated amounts of dye could saturate both types of nucleic acids. The inventors then performed the experiment in the opposite sense, i.e. titrating a fixed amount of compound I at 1 μM with increasing amounts of DNA and RNA.
# solubility in DMSO = type: physicochemical; details: organic solvent or mixture, free base, read-out: solubility (saturation)
# Experimental: Solubility of compound I: In DMSO, compound I (free base) is soluble until saturation at ˜7 mM. As much as 1 volume of 7 mM, compound I in DMSO mixed with 7 volumes of H2O forms a turbid solution (0.875 mM compound I in ˜12% DMSO). Upon sonication for 1 min, this solution becomes limpid and can be further dissolved in aqueous solutions.
smiles,measurement,setting,value
"COc1ccc2c(c1)c(C)nc1c3ccc(OC)cc3c(NCCCN(C)C)nc21 [Compound I, N′-(2,8-dimethoxy-12-methyl-dibenzo[c,h][1,5]naphthyridin-6-yl)-N,N-dimethyl-propane-1,3-diamine]",quantum yield,"CT DNA; free dye, 5 μM, 50 mM Na-phosphate pH 7.2, excited at 435 nm",2.7%
same,quantum yield,"CT DNA; in admixture with 50 μM CT DNA, 5 μM dye, excited at 435 nm",13.8%
same,Images of the in vivo nuclear staining,human fibroblasts,Strong
same,saturation of fixed amount of dye by RNA (not saturated),[1]; 1 μM dye,> 250 b/dye
same,saturation of fixed amount of dye by dsDNA,[1]; 1 μM dye,~30 bp/dye
same,fluorescence with dsDNA relative to RNA,"[1]; 1 μM dye titrated with DNA and RNA, same b(bp)/dye ratios",2.5-3.6
same,emission strength with DNA relative to RNA,[1]; dye/b(bp) ratio 0.2,1.8 fold
same,emission strength with DNA relative to RNA,"[1]; low dye/bp and dye/b ratios, 484 nm",6 fold
same,solubility,solubility in DMSO,~7 mM
